Columns and labels:
[1] = acid dissociation index (pK1, pK2) at 25° C.; format: physicochemical; settings: for Difference (pK2 - pK1): 25° C., method (D); for first acid dissociation index / second acid dissociation index: for the dibasic acid, source of value not given
Protocol: The organic dibasic acid used as a deodorant in the present invention is selected from organic dibasic acids and/or salts thereof having a difference between the first acid dissociation index and the second acid dissociation index of 1.7 or more at 25° C. (hereinafter, described as deodorant organic dibasic acid). The acid dissociation index can be measured, for example, by a method (A) described in The Journal of Physical Chemistry vol.
Further, previously obtained data may also be used. […] Further, the organic dibasic acid can be selected based on data bases (D) such as pKa BASE of Compudrug, and the like. The first acid dissociation index and the second acid dissociation index of the organic dibasic acid may be determined by any of the methods (A) to (D).

[2] = 25° C.; method (D), data bases such as pKa BASE of Compudrug; cited from earlier work
[3] = Deodorization effect on lower fatty acid (sensory evaluation); settings: 150 mg of 1% aqueous lower fatty acid mixture 20/60/20; after 20 minutes; grades 0 to 3 (initial odor = 3), average of three examiners
[4] = Deodorization effect on mercaptan (sensory evaluation, filter paper in beaker); settings: 150 mg base agent, 50 mg 0.0002% methylmercaptan in propylene glycol; after 20 minutes; grades 0 to 3 (initial odor = 3), average of three examiners
Protocol: Filter paper having a length of 7 cm and a width of 0.5 cm was impregnated with 150 mg of a deodorant base agent, subsequently, the same filter paper was impregnated with 50 mg of a 0.0002% solution of methylmercaptan in propylene glycol. The filter paper was placed in erected condition in a 3 liter beaker and wrapping film was covered on it and left for 20 minutes, then, a odor filling the beaker was subjected to sensory evaluation. The strength of the odor of methylmercaptan at the initial was defined as 3, and odors after 20 minutes were evaluated by three examiners based on four grades from 0 to 3, and the average value thereof was calculated and the first decimal was rounded off to give a deodorization effect.

[5] = Deodorization effect on ammonia odor (dessicator, Kitagawa type gas detector); settings: 250 mg base agent, 50 mg of 1% ammonia aqueous solution, 2.5 liter dessicator, 20 minutes; relative to blank 1
Protocol: Into a schale having a diameter of 4 cm was added 250 mg of the deodorant base agents obtained in Reference Examples 1 and 2, and 50 mg of a 1% ammonia aqueous solution was dropped thereon. The above-mentioned schale was allowed to stand still in a 2.5 liter dessicator for 20 minutes, then, the ammonia concentration (S) was measured by a Kitagawa type gas detector. Further, a schale containing no deodorant base agent was used as a blank 1 and a schale containing 250 mg of water added instead of a deodorant base agent was used as a blank 2, and the ammonia concentration was measured likewise. The ammonia concentration of the blank 1 was represented by C, and the deodorization rate was calculated according to the following formula. As Comparative Example 1, the deodorization effect on an ammonia odor was measured likewise in Example 1 using 250 mg of a solution obtained by dissolving 28 g (0.116 mol) of lauryl methacrylate which is a known deodorant base agent in 115 g of diethylene glycol monoethyl ether.
(Measurement Method of Deodorization Ratio)
Deodorization rate (%)=[(C−S)/C]×100
S: ammonia gas concentration after 20 minutes (ppm)
C: ammonia gas concentration of blank 1 (ppm)

SMILES | Difference (pK2 - pK1) [1] | First acid dissociation index (pK1) [2] | Second dissociation index (pK2) [2] | Evaluation of odor [3] | Evaluation of odor [4] | Deodorization rate [5] [%] | first acid dissociation index [1] | second acid dissociation index [1] | difference of acid dissociation index ([1]; given in running text)
O=C(O)[C@H]1CCCCCC[C@H]1C(=O)O [Cis-1,2-cyclooctanedicarboxylic acid] | 3.35 | 3.99 | 7.34 | – | – | – | – | – | –
O=C(O)[C@H]1CCC[C@H]1C(=O)O [Cis-1,2-cyclopentanedicarboxylic acid] | 2.15 | 4.42 | 6.57 | – | – | – | – | – | –
O=C(O)[C@H]1C[C@H]1C(=O)O [Cis-1,2-cyclopropanedicarboxylic acid] | 3.09 | 3.56 | 6.65 | – | – | – | – | – | –
C=C(C)C(=O)OCCCCCCCCCCCC [Comparative Example 1, lauryl methacrylate, reference compound] | – | – | – | 2 | 3 | 10 | – | – | –
O=C(O)CCC(=O)O [Comparative Example 2, succinic acid, reference compound] | – | – | – | 2 | 3 | 33 | 4.00 | 5.25 | less than 1.7
O=C(O)CC1(CC(=O)O)CCCCC1 [Cyclohexyl-1,1-diacetic acid] | 3.59 | 3.49 | 7.08 | – | – | – | – | – | –
O=C(O)[C@H]1CCCC[C@H]1C(=O)O [Deodorant base agent 1, cis-cyclohexane-1,2-dicarboxylic acid] | – | – | – | 1 | 2 | 79 | – | – | –
O=C1OC(=O)C2C3C=CC(C3)C12 (centres unmarked) [Deodorant base agent 2, 5-norbornene-2,3-dicarboxylic acid anhydride] | – | – | – | 1 | 1 | 88 | 4.16 | 6.23 | –
O=C(O)CC(C(=O)O)c1ccccc1 (centres unmarked) [Phenylsuccinic acid] | 1.77 | 3.78 | 5.55 | – | – | – | – | – | –
CC(C)(C(=O)O)C(C)(C)C(=O)O [Tetramethylsuccinic acid] | 3.85 | 3.56 | 7.41 | – | – | – | – | – | –
O=C(O)CC1(CC(=O)O)CCCC1 [cyclopentyl-1,1-diacetic acid] | 2.97 | 3.80 | 6.77 | – | – | – | – | – | –

— patent US6780403B1, “Deodorants” (Kao Corporation, priority 1999, dated 2004)
